The values that follow come from patent US20100297020A1, “PHOSPHORYLATED AND PHOSPHONATED PYRONE ANALOGS FOR THERAPEUTIC TREATMENT” (Limerick Biopharma, Inc., priority 2008, published 2010).

The test system of data set [1] is BB19 cells, human BCECs (brain capillary endothelial cells). Description: Tacrolimus uptake assay. The class given is cell-based. The conditions noted are these: Endothelial cell, 1 h, 0.1 μM test compound, 1 hour incubation, 3H-tacrolimus 34 nM, read-out: cell associated ^3H-tacrolimus uptake, % of control. The protocol:
(§1) BB19 cells, human BCECs (brain capillary endothelial cells) immortalized with the E6E7 genes of human papilloma virus, were kindly provided from Jacques G. Prudhomme, Department of Biology, University of California, Riverside, U.S.A. The cells were cultured as monolayer culture in Amniomax™-C100 basal medium (catalog number 17001-157) with Amniomax™-C100 supplement (catalog number 12556-049) (Invitrogen, Basel, CH).
(§2) Cells were seeded onto culture surfaces precoated with 10 μg/cm^2 rat tail collagen type I (BD Bioscience, Allschwil, CH) at a density of approximately 50′000 cells/cm^2 and were cultured in an incubator at 37° C. with 5% CO2, 95% fresh air and saturated humidity. For uptake assays, cells were seeded on precoated 96-well plates. Assays were performed at confluency, after 6 days in culture.
(§3) BB19 cells were seeded 50′000 cells/cm^2 on 96-well plates (Falcon) and incubated under condition described above for 6 days. Before starting the assay, cells were washed 2 times with pre-warmed Dulbecco's MEM with Glutamax-I (catalog number 61965) (Invitrogen AG, Basel, CH), supplemented with 1% non essential amino acids, 1% sodium pyruvate, 50 μg/ml gentamycin (Invitrogen AG) (DMEM). Cells were then incubated for 15 min at 37° C. and 120 rpm in DMEM with or without the specified concentrations of test compounds under investigation. After this pre-incubation, cells were incubated in DMEM containing [propyl-3H]-dihydro-FK506 (3H-tacrolimus, 1 μCi/ml, 34 nM) and with or without the specified concentrations of test compounds for 1 hour at 37° C. and 120 rpm. During this 1-hour incubation period, influx and efflux of the substrate, ^3H-tacrolimus, occur. After the 1-hour incubation period, assay was terminated by placing the assay plate on ice and washing the cells twice with ice-cold DMEM. Determination of cell associated ^3H-tacrolimus was performed by addition of Insta Gel and scintillation liquid to trypsinized cells followed by analysis on a scintillation counter (Packard TriCarb2000, Can berra Packard S.A.). The results are expressed as: % of control=100×[^3H-tacrolimus conc. with test compound]/[^3H-tacrolimus conc. with vehicle]

The test system of data set [2] is rats treated with tacrolimus. Kind of data set: Renal pathology in rats co-administered with tacrolimus. It counts as in vivo. The conditions noted are these: tacrolimus 0.5 mg/kg with vehicle or with Compound 2 at 11, 28 and 114 mg/kg, 25 days. As for the experimental part:
Tissue is removed from the kidney of rats treated with tacrolimus (Prograf®) at 0.5 mg/kg and inert vehicle, and from rats treated with tacrolimus (Prograf®) at 0.5 mg/kg and quercetin-3′-O-methylphosphonate (Compound 2) at 11 mg/kg, 28 mg/kg, and at 114 mg/kg for 25 days. […] The tissue from rats treated with Compound 2 and tacrolimus show no vacuoles.

The subject of data set [3] is tacrolimus treated Wistar rats. Kind of data set: Tacrolimus induced hyperglycemia in male Wistar rats. The class given is in vivo. The following applies: for plasma glucose levels by day-14: tacrolimus 2 mg/kg PO daily, alone or with compound 1 at 30, 10 and 3 mg/kg IP.
Data set [4] relates to BB19 cells, human BCECs (brain capillary endothelial cells). Kind of data set: Cyclosporin uptake assay. It counts as cell-based. The following applies: 0.1 μM test compound; 1 hour incubation. The protocol: as §1, §2, §3
The cyclosporin uptake assay was performed similarly as described above for tacrolimus uptake assay except that ^3H-cyclosporin was used in place of ^3H-tacrolimus.

A further data set relates to male ZDF rats. Description: 4-week study in male ZDF rats (compound 1).
Data set [5] relates to cyclosporin treated Wistar rats. Kind of data set: Islet histopathology and apoptosis in cyclosporine treated Wistar rats. The following applies: cyclosporine 10 mg/kg PO, alone (Group-2) or with compound 1 30 mg/kg IP (Group-3). The class given is in vivo.
The test system is the same in data set [6]. Description: Cyclosporine induced hyperglycemia in male Wistar rats. It counts as in vivo.
[7] abbreviates: compound 1 30 mg/kg, rosiglitazone 6 mg/kg, compared to vehicle.

Structures are written as SMILES.

With `O=c1c(O)c(-c2ccccc2)oc2cc(OCP(=O)(O)O)cc(O)c12` [Compound 10, (3,5-Dihydroxy-4-oxo-2-phenyl-4H-chromen-7-yloxy)methylphosphonic acid], in data set [1], the activity at 0.1 µM amounted to 51%.
Turning to `C=CC[C@@H]1/C=C(\C)C[C@H](C)C[C@H](OC)[C@H]2O[C@@](O)(C(=O)C(=O)N3CCCC[C@H]3C(=O)O[C@H](/C(C)=C/[C@@H]3CC[C@@H](O)[C@H](OC)C3)[C@H](C)[C@@H](O)CC1=O)[C@H](C)C[C@@H]2OC` [Tacrolimus, tacrolimus, reference compound], the “vacuolation of kidney tissue” value in data set [2] was “significant vacuolation”. For the same compound, the “plasma glucose levels by day-14” value in data set [3] is on record as “induced hyperglycemia is clearly demonstrated”.
With `O=c1c(O)c(-c2ccc(OCP(=O)(O)O)cc2)oc2cc(O)cc(O)c12` [Compound 11, (4-(3,5,7-Trihydroxy-4-oxo-4H-chromen-2-yl)phenoxy)methylphosphonic acid], in data set [4], the “cell associated ^3H-cyclosporin uptake, % of control” value was 78 % of control. The activity at 0.1 µM in data set [1] was 49%.
In the same order, the values of `O=c1c(O)c(-c2ccc(O)c(OCP(=O)(O)O)c2)oc2ccccc12` [Compound 18, (2-Hydroxy-5-(3-hydroxy-4-oxo-4H-chromen-2-yl)phenoxy)methylphosphonic acid] are 77 % of control and 66%.
As to `O=c1c(OCP(=O)(O)O)c(-c2ccc(O)c(O)c2)oc2cc(O)cc(O)c12` [Compound 1, Quercetin-3-O-methylphosphonic acid], the plasma glucose levels entry with male ZDF rats (4 weeks daily i.p., compound 1 30 and 10 mg/kg) is listed as “maintains a lower plasma glucose level than vehicle treatment”. In addition, the “glycated hemoglobin levels (% HbA1c) at termination” value with male ZDF rats (setting [7]) is listed as “significantly lower glycated hemoglobin levels”. Moreover, the pancreatic insulin levels result with male ZDF rats (setting [7]) is “significantly higher than that of the vehicle treated animals”. For the same compound, in the data set with male ZDF rats (day-28 and day-29), the “plasma insulin levels, fed and fasting” value is “significantly higher plasma insulin levels under both fed and fasting conditions”. Moreover, the liver triglyceride result with male ZDF rats (four weeks of daily treatment) is “did not increase liver triglyceride”. Also, in the data set on male ZDF rats (oral glucose 2 g/kg, day-29 after 12-hr fast, 15, 30, 60, 90 minutes), the “plasma glucose during OGTT” value is “maintain lower plasma glucose level during OGTT”. Moreover, the “number of apoptotic islet cells” value in data set [5] is on record as “reduced the number of apoptotic cells to that of vehicle treated animals”. Further, the “islet cell hyperplasia and degeneration/necrosis scores” value in data set [5] (score 0-4) is “normalized the scores to that of vehicle treated animals”. Further, in data set [3] (0, 15 and 30 minutes post glucose, compound 1 at all three dose levels with tacrolimus 2 mg/kg), the “plasma insulin level during OGTT” value is “higher than tacrolimus treated (group-2) or vehicle treated (Group-1) animals”. For the same compound, the “plasma glucose level during OGTT” value in data set [3] (compound 1 30 mg/kg and 10 mg/kg IP with tacrolimus 2 mg/kg PO, day-15) is reported as “a level similar to that of vehicle treated animals”; in data set [6] (compound 1 30 mg/kg IP with cyclosporine 10 mg/kg PO, day-15), “a level similar to that of vehicle treated animals”. The “plasma glucose levels by day-14” value in data set [3] was “reduced tacrolimus induced hyperglycemia”; in data set [6] (cyclosporine 10 mg/kg PO daily, alone or with compound 1 at 30, 10 and 3 mg/kg IP) it was “reduced cyclosporine induced hyperglycemia”; in data set [6] (cyclosporine 10 mg/kg PO with compound 1 at 30 mg/kg IP), “completely prevented cyclosporine induced hyperglycemia”.
For the compound `O=c1c(OCP(=O)(O)O)c(-c2ccc(O)c(O)c2)oc2ccccc12` [Compound 20, (2-(3,4-Dihydroxyphenyl)-4-oxo-4H-chromen-3-yloxy)methylphosphonic acid], the “cell associated ^3H-cyclosporin uptake, % of control” value in data set [4] is reported as 77 % of control. Besides, the activity at 0.1 µM in data set [1] was 62%.
For `O=c1c(O)c(-c2ccccc2)oc2cc(O)cc(OCP(=O)(O)O)c12` [Compound 16, (3,7-Dihydroxy-4-oxo-2-phenyl-4H-chromen-5-yloxy)methylphosphonic acid], in data set [1], the activity at 0.1 µM turned out to be 54%.
